Assay results: patent US4661510A, “α-allenic-α-amino acids as enzyme inhibitors” (priority 1985, dated 1987)

Tests used:
[1] = target: T1, bacterial tyrosine decarboxylase from Streptococcus faecallis (Enterococcus faecalis, UniProt Q838D6); test: Time dependent inactivation of tyrosine decarboxylase; type: biochemical; settings: Streptococcus faecallis enzyme
T1 construct: purchased from Sigma Chemical Co. as crude extracts; purchased Sigma Chemical Co; host or cells: Streptococcus faecalis, crude extract
T1 sequence (Q838D6 1-620): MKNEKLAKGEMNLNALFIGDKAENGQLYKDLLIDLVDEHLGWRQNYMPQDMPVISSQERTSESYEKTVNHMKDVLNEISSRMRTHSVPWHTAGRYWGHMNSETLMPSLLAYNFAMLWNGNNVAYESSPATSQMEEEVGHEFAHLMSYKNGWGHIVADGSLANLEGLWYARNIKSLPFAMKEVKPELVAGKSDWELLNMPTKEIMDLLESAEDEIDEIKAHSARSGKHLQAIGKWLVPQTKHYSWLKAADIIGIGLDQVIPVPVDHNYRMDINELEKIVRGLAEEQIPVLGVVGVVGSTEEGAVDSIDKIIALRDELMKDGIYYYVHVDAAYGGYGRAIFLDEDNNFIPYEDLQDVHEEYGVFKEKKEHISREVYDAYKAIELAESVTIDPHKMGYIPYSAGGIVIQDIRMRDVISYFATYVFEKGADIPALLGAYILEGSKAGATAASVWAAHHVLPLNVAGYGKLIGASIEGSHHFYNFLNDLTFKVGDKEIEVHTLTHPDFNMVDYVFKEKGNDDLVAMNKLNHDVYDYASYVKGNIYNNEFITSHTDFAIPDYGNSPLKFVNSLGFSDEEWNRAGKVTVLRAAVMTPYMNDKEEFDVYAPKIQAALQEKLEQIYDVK
From the text: (§1) Mammalian DOPA decarboxylase was isolated and purified from porcine kidney by the procedure of Borri-Voltatorni et al [Eur. J. Biochem., 93, 181 (1979)] with modifications as introduced by Rudd and Thanassi [Biochemistry, 20, 7469 (1981)]. Bacterial L-phenylalanine and L-tyrosine decarboxylases ex Streptococcus faecallis were purchased from Sigma Chemical Co. as crude extracts and studied without further purification.
(§2) The time dependent inactivation of bacterial aromatic amino acid decarboxylases with 200-1000 micromolar inhibitor, e.g. 2-amino-2-(4-hydroxybenzyl)-penta-3,4-dienoic acid or 2-amino-2-benzylpenta-3,4-dienoic acid, was monitored at pH 5.5 and 37° C. Residual activity of tyrosine decarboxylase ex Streptococcus faecallis was determined by measurement of p-tyramine production at pH 5.5 and 37° C. p-Tyramine was separated by HPLC and quantified by electrochemical oxidation at +0.7 volts.

[2] = target: T2, phenylalanine decarboxylase from Streptococcus faecallis (Enterococcus faecalis, UniProt Q838D6); test: Time dependent inactivation of phenylalanine decarboxylase; type: biochemical; settings: Streptococcus faecallis enzyme
T2 construct: L-phenylalanine substrate, phenylethylamine by GC
T2 sequence (Q838D6 1-620): T1 sequence (Q838D6 1-620)
From the text: as §1, §2
Residual activity of L-phenylalanine decarboxylase ex Streptococcus faecallis with L-phenylalanine (2 mM) as substrate was meaasured by gas chromatographic analysis of phenylethylamine production. Direct injection of enzymatic reaction mixture (1-5 microliters) onto a standard glass column packed with 10% Apiezon L on Chromosorb 80/100 deactivated with 2% KOH allowed separation of aromatic amine from the reaction mixture. FID detection quantified the rate of product formation.

[3] = target: T3, mammalian DOPA decarboxylase from porcine kidney (Sus scrofa, UniProt P80041); test: Time dependent inactivation of DOPA decarboxylase; type: biochemical; settings: porcine kidney enzyme
T3 construct: isolated and purified from porcine kidney; from tissue; host or cells: porcine kidney
T3 sequence (P80041 1-486): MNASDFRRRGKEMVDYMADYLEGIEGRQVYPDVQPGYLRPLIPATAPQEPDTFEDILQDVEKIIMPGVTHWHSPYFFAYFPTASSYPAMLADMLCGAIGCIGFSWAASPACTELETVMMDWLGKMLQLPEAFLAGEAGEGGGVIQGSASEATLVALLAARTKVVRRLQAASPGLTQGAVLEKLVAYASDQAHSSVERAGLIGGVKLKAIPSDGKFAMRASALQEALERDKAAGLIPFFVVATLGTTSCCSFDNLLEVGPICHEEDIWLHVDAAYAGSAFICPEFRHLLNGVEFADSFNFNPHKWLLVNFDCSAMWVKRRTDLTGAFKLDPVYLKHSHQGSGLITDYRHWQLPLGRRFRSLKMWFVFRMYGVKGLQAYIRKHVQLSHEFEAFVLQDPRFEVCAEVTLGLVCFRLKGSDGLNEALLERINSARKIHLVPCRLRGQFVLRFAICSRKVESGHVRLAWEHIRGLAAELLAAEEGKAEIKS
From the text: as §1
Time dependent inactivation of mammalian DOPA decarboxylase was monitored by incubation of enzyme with 4 to 100 molar equivalent excess of 2-amino-2-(3,4-dihydroxybenzyl)penta-3,4-dienoic acid at pH 6.8 and 37° C. At appropriate time intervals, aliquots of the mixture were withdrawn, diluted 30-fold into excess L-DOPA (2 mM) and residual DOPA decarboxylase activity determined.
DOPA decarboxylase activity was routinely measured by liquid chromatography and electrochemical detection of catecholamine products. DOPA decarboxylase (1-5 micrograms, 1-20 units) was incubated with L-DOPA (2000 micromolar, 150 microliters) and PLP (10 micromolar) in 0.1M phosphate at pH 6.8 and 37° C. After 1-10 minutes, the reaction was quenched with citric acid (2M, 25 microliters), diluted two-fold with distilled water and 10 microliter aliquots were analyzed by HPLC on a reverse phase Brownlee RP-18 column. Isocratic elution with pH 4.35 buffer [0.1M NaOAc ([…]), 0.1M citric acid (32% v/v) and methanol (15% v/v)] at a flow rate of 2.5 ml/min. afforded baseline resolution of dopamine (RT=2.8 min.) from L-DOPA (RT=1.9 min.).
Quantification of dopamine was accomplished by preoxidation of the catechol to the ortho quinone at +0.25 volts in the first analytical electrochemical cell, followed by the selective reduction of ortho quinone in the second analytical cell set at -0.25 volts. This configuration for the ESA electrochemical detector allowed highly sensitive and selective detection of catecholamines (less than 10 picomoles/injection).

Male Sim:(S.D.)fBR rats = test: In vivo potentiation of L-DOPA induced behaviors; set-up: species or system rat; settings: for Mean Behavior Score at 60 min.: score scale 0-6, before 200 mg/kg L-DOPA i.p.
Procedure: Male Sim:(S.D.)fBR rats weighing 180-335 g were used for these experiments. Groups of 5 rats were individually housed and received water, or various doses of either 2-amino-2-(3-hydroxybenzyl)penta-3,4-dienoic acid or 2-amino-2-(3,4-dihydroxybenzyl)penta-3,4-dienoic acid 30 l minutes before 200 mg/kg of L-DOPA, i.p. Beginning 15 minutes later, behavioral observations were made at 15 minutes intervals for 2 hours. Behavoir was scored as follows:
3=Alert with intermittent sniffing

ornithine decarboxylase = target: T4, ornithine decarboxylase (Homo sapiens, UniProt P11926); settings: Relyea and Rando 1975; cited from earlier work
T4 sequence (P11926 1-461): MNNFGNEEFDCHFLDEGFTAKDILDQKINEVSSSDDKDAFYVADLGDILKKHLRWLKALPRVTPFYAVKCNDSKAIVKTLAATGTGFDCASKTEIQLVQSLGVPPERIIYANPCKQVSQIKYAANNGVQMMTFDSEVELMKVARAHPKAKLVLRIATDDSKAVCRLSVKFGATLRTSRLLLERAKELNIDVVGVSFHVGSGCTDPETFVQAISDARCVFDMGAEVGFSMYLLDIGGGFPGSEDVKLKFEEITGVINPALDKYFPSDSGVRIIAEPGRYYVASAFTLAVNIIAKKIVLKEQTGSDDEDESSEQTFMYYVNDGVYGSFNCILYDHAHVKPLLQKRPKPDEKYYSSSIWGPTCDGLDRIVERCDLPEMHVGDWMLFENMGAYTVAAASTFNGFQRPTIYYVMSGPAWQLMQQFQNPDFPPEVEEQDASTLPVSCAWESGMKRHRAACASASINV

[4] = target: T5, rat prostate ornithine decarboxylase (Rattus norvegicus, UniProt P09057); settings: Metcalf et al 1979; cited from earlier work
T5 construct: host or cells: rat prostate
T5 sequence (P09057 1-461): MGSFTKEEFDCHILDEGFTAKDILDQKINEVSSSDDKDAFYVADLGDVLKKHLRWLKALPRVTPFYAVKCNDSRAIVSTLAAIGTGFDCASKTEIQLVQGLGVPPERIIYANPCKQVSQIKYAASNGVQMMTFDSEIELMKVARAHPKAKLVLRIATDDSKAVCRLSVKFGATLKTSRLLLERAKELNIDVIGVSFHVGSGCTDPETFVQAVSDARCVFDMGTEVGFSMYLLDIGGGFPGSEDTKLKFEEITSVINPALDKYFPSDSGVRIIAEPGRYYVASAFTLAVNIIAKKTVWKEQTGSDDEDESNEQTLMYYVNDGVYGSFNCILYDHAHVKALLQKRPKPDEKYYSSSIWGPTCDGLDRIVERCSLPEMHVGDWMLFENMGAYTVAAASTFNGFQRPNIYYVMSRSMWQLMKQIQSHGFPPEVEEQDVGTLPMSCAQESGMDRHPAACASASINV

[5] = target: T6, rat liver ornithine decarboxylase (Rattus norvegicus, UniProt P09057); settings: Metcalf et al 1979; cited from earlier work
T6 construct: host or cells: rat liver
T6 sequence (P09057 1-461): T5 sequence (P09057 1-461)

[6] = test system: rat brain glutamate decarboxylase; settings: Crystal et al 1977; cited from earlier work
[7] = target: bacterial glutamate decarboxylase (Escherichia coli, UniProt P69910); settings: Jung et al 1978; cited from earlier work
[8] = test system: mammalian glutamate decarboxylase; settings: Jung et al 1978; cited from earlier work
[9] = target: T7, aromatic amino acid decarboxylase (Sus scrofa, UniProt P80041); settings: Maycock et al; cited from earlier work
T7 sequence (P80041 1-486): T3 sequence (P80041 1-486)

Sequence of bacterial glutamate decarboxylase (P69910 whole entry): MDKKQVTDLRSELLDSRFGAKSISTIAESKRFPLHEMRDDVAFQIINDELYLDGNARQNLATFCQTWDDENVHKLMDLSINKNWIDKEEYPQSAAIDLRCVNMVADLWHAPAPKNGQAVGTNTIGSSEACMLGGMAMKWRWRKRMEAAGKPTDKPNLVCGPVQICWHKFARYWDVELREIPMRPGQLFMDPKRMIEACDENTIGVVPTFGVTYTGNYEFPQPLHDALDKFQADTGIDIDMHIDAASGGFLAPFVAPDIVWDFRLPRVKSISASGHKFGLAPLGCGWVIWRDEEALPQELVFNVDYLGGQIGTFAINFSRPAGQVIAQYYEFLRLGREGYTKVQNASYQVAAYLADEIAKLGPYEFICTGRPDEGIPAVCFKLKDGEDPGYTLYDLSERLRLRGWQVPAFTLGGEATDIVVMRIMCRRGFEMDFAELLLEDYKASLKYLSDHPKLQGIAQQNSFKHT

irreversible inactivation of tyrosine decarboxylase [1] | irreversible inactivation of phenylalanine decarboxylase [2] | irreversible inactivation of DOPA decarboxylase [3] | Structure (SMILES) | further results
irreversible inactivators | irreversible inactivators | irreversible inactivators | CC=C=CC(N)(Cc1ccccc1)C(=O)O (centres unmarked) [2-amino-2-benzylhexa-3,4-dienoic acid] | 
 |  |  | NCC=CC(N)C(=O)O (stereo not drawn) [β, γ-dehydroornithine] | inhibition of ornithine decarboxylase (ornithine decarboxylase): very potent competitive inhibitor
 |  |  | C#CC(N)CCCN (single isomer, unassigned; (-)) [(-)-5-hexyne-1,4-diamine] | inhibition of ornithine decarboxylase [4]: potent time-dependent inhibitor; inhibition of ornithine decarboxylase [5]: potent time-dependent inhibitor
irreversible inactivators | irreversible inactivators | irreversible inactivators | C=C=CC(N)(Cc1ccccc1)C(=O)O (centres unmarked) [2-amino-2-benzylpenta-3,4-dienoic acid] | 
 |  |  | CC(N)(/C=C/C(=O)O)C(=O)O (stereo not drawn) [α-methyl-trans-dehydroglutamic acid] | inhibition of glutamate decarboxylase [6]: irreversibly inhibits
 |  |  | C#C[C@H](N)CCC(=O)O [(R) 4-amino-hex-5-ynoic acid] | inhibition of glutamate decarboxylase [7]: inhibit; inhibition of glutamate decarboxylase [8]: inhibit
irreversible inactivators | irreversible inactivators | irreversible inactivators | CC=C=CC(N)(Cc1cccc(O)c1)C(=O)O (centres unmarked) [2-amino-2-(3-hydroxybenzyl)hexa-3,4-dienoic acid] | 
 |  |  | C=CC(N)Cc1ccc(O)c(O)c1 (stereo not drawn) [α-vinyl-dopamine] | inactivation of aromatic amino acid decarboxylase [9]: slow-time dependent inactivation
irreversible inactivators | irreversible inactivators | irreversible inactivators | C=C=CC(N)(Cc1ccc(O)cc1)C(=O)O (centres unmarked) [2-amino-2-(4-hydroxybenzyl)penta-3,4-dienoic acid] | 

Structure (SMILES) | irreversible inactivation of tyrosine decarboxylase [1] | irreversible inactivation of phenylalanine decarboxylase [2] | irreversible inactivation of DOPA decarboxylase [3] | further results
C=C=CC(N)(Cc1ccc(O)c(O)c1)C(=O)O (centres unmarked) [2-amino-2-(3,4-dihydroxybenzyl)penta-3,4-dienoic acid] | irreversible inactivators | irreversible inactivators | irreversible inactivators | potentiation of the behaviors induced by L-DOPA (Male Sim:(S.D.)fBR rats; 30 mg/kg i.p. or s.c., 30 minutes before 200 mg/kg L-DOPA i.p.): active; Mean Behavior Score at 60 min. (Male Sim:(S.D.)fBR rats; 30 mg/kg i.p.): 4.0; Mean Behavior Score at 60 min. (Male Sim:(S.D.)fBR rats; 30 mg/kg s.c.): 4.0; potentiation of DOPA behaviors (Male Sim:(S.D.)fBR rats; 3 to 30 mg/kg i.p. or 30 to 150 mg/kg s.c.): potentiate DOPA behaviors
